This note sets out measurements from patent US20150290260A1, “METHODS OF USE FOR PROBIOTICS AND PREBIOTICS” (Mead Johnson Nutrition Company, priority 2014, published 2015).

Assay [1] deals with neurotransmitters (biogenic monoamines) in the brain. Kind of assay: Neurotransmitter levels in the brain by HPLC, neonatal zymosan visceral hyperalgesia rats. The assay is classed as in vivo. To be noted: brain stem, vs non-LGG treated rats, LGG P21-P60, FIG. 6A. The text has this:
This example describes the effect of LGG on the neurotransmitter levels in the brain. Briefly, chronic visceral hyperalgesia was induced in rats by administration of intracolonic zymosan (or normal saline for control) for three consecutive days during postnatal day 14-16 (P14-P16). LGG treatment was initiated after weaning (P21) and continued until P60. The levels of neurotransmitters and amino acids were quantified in the frontal cortex, sub-cortex, brain stem and cerebellum.
The quantitative assessment of neurotransmitters was conducted using HPLC-based separation followed by fluorescent and/or electrochemical detection. Briefly, brain sections were homogenized, using a tissue dismembrator, in 100-750 ul of 0.1 M TCA, which contains 10-2 M sodium acetate, 10^-4 M EDTA, 5 ng/ml isoproterenol (as internal standard) and 10.5% methanol (pH 3.8). Samples were spun in a microcentrifuge at 10000 g for 20 minutes. Samples of the supernatant were then analyzed for neurotransmitters (biogenic monoamines). Biogenic amines were determined by a specific HPLC assay utilizing an Antec Decade II (oxidation: 0.4) (3 mm GC WE, HYREF) electrochemical detector operated at 33° C. Twenty I samples of the supernatant were injected using a Water 2707 autosampler onto a Phenomenex Kintex (2.6u, 100 Å) C18 HPLC column (100×4.60 mm). Biogenic amines were eluted with a mobile phase consisting of 89.5% 0.1 M TCA, 10-2 M sodium acetate, 10^-4 M EDTA and 10.5% methanol (pH 3.8). Solvent was delivered at 0.6 ml/min using a Waters 515 HPLC pump. Using this HPLC solvent the following biogenic amines eluted in the following order: noradrenaline, Adrenaline, DOPAC, Dopamine, 5-HIAA, HVA, 5-HT, and 3-MT. HPLC control and data acquisition were managed by Empower software.

Assay [2] is described as follows: Viscera-motor response (VMR) to colorectal distension (CRD), rat colonic zymosan-treated hyperalgesia model. It counts as in vivo, rats. The procedure: Example 3 utilized a rat colonic zymosan-treated hyperalgesia model (i.e. a model of post-inflammatory visceral pain sensitivity). Zymosan was injected into the colon during the neonatal period producing short-term inflammation and subsequent long-term colonic hypersensitivity.
In this experiment, weanling rats were fed a control diet or control diet plus LGG and/or PDX/GOS for 40 days. The VMR to CRD was quantified using electromyographic (EMG) recordings from the external oblique muscle of the abdomen as an objective measure of visceral sensation in all groups. A stimulus-response function to graded CRD was constructed to test the colonic intensity dependent increase in EMG activity change of external oblique muscle.

For the substance Lactobacillus rhamnosus GG [LGG], in assay [1], the “level of 5-hydroxyindoleacetic acid (5-HIAA)” value is “significant increase”, the “level of noradrenaline (NA)” value is reported as “significant increase” and the “level of serotonin (5-HT)” value is reported as “significant increase”. In addition, the visceral hypersensitivity entry in assay [2] (neonatal colonic zymosan model) is reported as “attenuated”. Moreover, the “sensitivity to pain (EMG recordings)” value in assay [2] (p<0.05 vs Control+Zymosan, n=10, fed 40 days) was “significantly attenuated”. Besides, the “viscera-motor response (VMR) to CRD” value in assay [2] (zymosan-treated rats, FIG. 7) is “significantly attenuated”.
